# Reference: patent publication US8372967B2, “Compounds and methods for modulating expression of GCCR” (Isis Pharmaceuticals, Inc., priority 2006, dated 2013)
# Strand notation (5' to 3'): a small letter for the sugar, then the base; units joined by * are phosphorothioate-linked, units joined directly phosphodiester-linked; [ ] holds rarer units or linkages, { } end groups; capitals alone tell only the bases. e = 2'-O-(2-methoxyethyl) (MOE); [5mC] = 5-methylcytosine; d = 2'-deoxy (DNA)
# Assays:
# human SGLT2 = target: T1, human SGLT2 (Homo sapiens, UniProt P31639); conditions: Xenopus oocytes; cited from earlier work
# T1 construct: host or cells: Xenopus oocytes
# T1 sequence (P31639 1-672): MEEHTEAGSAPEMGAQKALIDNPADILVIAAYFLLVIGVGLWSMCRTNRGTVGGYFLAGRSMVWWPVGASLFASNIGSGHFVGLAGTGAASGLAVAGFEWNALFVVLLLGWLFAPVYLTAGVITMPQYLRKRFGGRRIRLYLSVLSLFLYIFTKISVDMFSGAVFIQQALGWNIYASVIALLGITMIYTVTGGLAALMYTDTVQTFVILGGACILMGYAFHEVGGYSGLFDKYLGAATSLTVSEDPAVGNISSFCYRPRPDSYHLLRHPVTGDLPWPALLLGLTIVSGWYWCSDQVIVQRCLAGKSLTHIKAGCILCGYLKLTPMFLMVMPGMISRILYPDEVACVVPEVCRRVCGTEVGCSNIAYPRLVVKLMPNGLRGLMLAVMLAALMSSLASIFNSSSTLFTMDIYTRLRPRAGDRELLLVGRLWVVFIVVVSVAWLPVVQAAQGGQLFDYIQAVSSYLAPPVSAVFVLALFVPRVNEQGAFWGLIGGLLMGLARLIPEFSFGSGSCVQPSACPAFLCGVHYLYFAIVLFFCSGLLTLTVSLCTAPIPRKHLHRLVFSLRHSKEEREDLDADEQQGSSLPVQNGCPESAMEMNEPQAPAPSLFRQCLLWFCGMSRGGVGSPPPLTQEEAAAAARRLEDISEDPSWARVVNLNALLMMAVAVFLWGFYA
# rat SGLT2 mRNA [1] = experiment: Rat SGLT2 mRNA in kidney, 1-10-1 gapmers, 250 nmol/kg (Table 66); format: in vivo; conditions: 250 nmol/kg i.p. twice per week for three weeks, Sprague-Dawley rat kidney
# Protocol: The effect of the above 1-10-1 gapmers (see Table 64 above) on rat SGLT2 mRNA levels. Data are taken from four experiments in which male Sprague-Dawley rats (170-200 g) were dosed twice per week for three weeks with 250 nmol/kg given by intraperitoneal injection. Rats were sacrificed 48 hours following last administration and evaluated for SGLT2 mRNA levels in kidney. Target levels were determined by RT, real-time PCR as described by other examples herein. PCR results were normalized to an internal ISIS control.
# rat SGLT2 mRNA [2] = experiment: Rat SGLT2 mRNA in kidney, 1-10-1 and 1-10-2 MOE gapmers, Sprague-Dawley rats (Table 63); format: in vivo
# Excerpt: 1-10-1 and 1-10-2 MOE gapmer antisense compounds, provided in Table 62, were designed to target different regions of the mouse or rat SGLT2 RNA. All short antisense compounds in Table 62 are chimeric oligonucleotides (“gapmers”) either 12 or 13 nucleotides in length, composed of a central “gap” segment consisting of ten 2′-deoxynucleotides, which are flanked on the 5′ side by a one-nucleoside “wing” and on the 3′ side by a two or one-nucleotide “wing”. […] All cytidine residues are 5-methylcytidines.
# The short antisense compounds were analyzed for their effect on rat SGLT2 mRNA levels. Data are ranges taken from three experiments in which Male Sprague-Dawley rats (170-200 g) were dosed twice per week for three weeks with 450, 150 or 50 nmol/kg of either a 1-10-1 or 1-10-2 MOE gapmer given by intraperitoneal injection. Rats were sacrificed 48 hours following last administration and evaluated for SGLT2 mRNA levels in kidney. Target levels were determined by RT, real-time PCR as described by other examples herein. PCR results were normalized to an internal ISIS control.
# mouse SGLT2 mRNA [3] = experiment: Mouse SGLT2 mRNA in kidney, wing, gap and total length variations (Table 61); format: in vivo
# Protocol: ISIS 3707171-10-1 MOE gapmer was used as a template to make sequence related oligos with varying motifs. The antisense compounds were designed to target different regions of the mouse or rat SGLT2 nucleic acid, using published sequences (GenBank accession number U29881.1, incorporated herein as SEQ ID NO: 1575, and GenBank accession number AJ292928.1, incorporated herein as SEQ ID NO: 1576, respectively).
# The antisense compounds were analyzed for their effect on mouse SGLT2 mRNA levels. Data are ranges taken from three experiments in which mice were dosed twice per week for three weeks with 2.5, 0.5 or 0.1 umol/kg of the above MOE gapmers given by intraperitoneal injection. Mice were sacrificed 48 hours following last administration and evaluated for SGLT2 levels in kidney. SGLT2 mRNA levels were determined by RT, real-time PCR as described by other examples herein. PCR results were normalized to an internal ISIS control.
# mouse SGLT2 mRNA [4] = experiment: Mouse SGLT2 mRNA in kidney, 1-10-1 MOE gapmers, Balb/c mice (Table 65); format: in vivo
# Protocol: The short antisense compounds were analyzed for their effect on mouse SGLT2 mRNA levels. Data was taken from three experiments in which Male 6-week old Balb/c mice were dosed twice per week for two weeks with 450, 150, or 50 nmol/kg of one of the above 1-10-1 MOE gapmers given by intraperitoneal injection. Mice were sacrificed 48 hours following last administration and evaluated for SGLT2 mRNA levels in kidney. Target levels were determined by RT, real-time PCR as described by other examples herein. PCR results were normalized to an internal ISIS control.
# [5] = Standard glucose tolerance test and urinary glucose excretion in dog; format: in vivo; conditions: standard glucose tolerance test, on average, compared to saline controls
# Protocol: (§1) ISIS 388625 is a 2-8-2 MOE Gapmer with sequence […] (SEQ ID NO: 246) (e.g. see Table 71). The effect of ISIS 388625 on dog SGLT2 mRNA levels. Data are taken from two dosing groups in which a total of nine male beagle dogs were dosed with either one or ten mg/kg/week of ISIS 388625 or saline given by subcutaneous injection twice weekly. On day 46 of the study all dogs were sacrificed and evaluated for SGLT2 levels in kidney. Target levels were determined by quantitative RT, real-time PCR as described by other examples herein. PCR results were normalized to an internal ISIS control.
# Even greater reduction can be achieved at slightly higher doses. […] Peak plasma glucose levels were decreased by over 50% on average and the subsequent drop in glucose was lessened compared to saline controls in a standard glucose tolerance test.
# [6] = HbA1c status in ZDF rat (Table 72); format: in vivo; conditions: ZDF rats, 400 nM/kg i.p. once a week for twelve weeks; compared to PBS and control
# Protocol: (§2) ISIS 388625, 388626 and control oligo ISIS 388628 were analyzed for their effect on ZDF rat plasma glucose levels and HbA1c. The leptin receptor deficient Zucker diabetic fatty (ZDF) rat is a useful model for the investigation of type 2 diabetes. Diabetes develops spontaneously in these male rats at ages 8-10 weeks, and is associated with hyperphagia, polyuria, polydipsia, and impaired weight gain, symptoms which parallel the clinical symptoms of diabetes (Phillips M S, et al., 1996, Nat Genet. 13, 18-19). Six week old ZDF rats were injected intraperitoneally with short antisense compound at a dose of 400 nM/kg once a week for twelve weeks. Data are illustrated in Tables 71 and 72.
# dog SGLT2 mRNA = experiment: Dog SGLT2 mRNA levels in kidney (Table 73); format: in vivo; conditions: 1 mg/kg/wk dose
# Protocol: as §1
# mouse SGLT2 mRNA [7] = experiment: Mouse SGLT2 mRNA in kidney, MOE versus Methyleneoxy BNA gapmers (Table 69); format: in vivo; conditions: Balb/c mouse kidney
# Protocol: The effect of ISIS 3796921-10-1 MOE gapmer and ISIS 3886252-8-2 MOE gapmer are compared with the effect of ISIS 3921701-10-1 Methyleneoxy BNA Gapmer and ISIS 3921732-8-2 Methyleneoxy BNA Gapmer (see Table 69) on mouse SGLT2 mRNA levels in vivo. Data are taken from three experiments in which male 6-week old Balb/c mice were dosed twice per week for three weeks with 5, 25 and 125 nmol/kg of either the ISIS 3796921-10-1 MOE gapmer or the ISIS 3886252-8-2 MOE gapmer given by intraperitoneal injection. Mice were sacrificed 48 hours following last administration and evaluated for SGLT2 mRNA levels in kidney. Target levels were determined by RT, real-time PCR as described by other examples herein. PCR results were normalized to an internal ISIS control. The data are expressed as percent change (“+” indicates an increase, “−” indicates a decrease) relative to saline treated animals and are illustrated in Table 69.
# mouse SGLT2 mRNA [8] = experiment: Mouse SGLT2 mRNA in kidney, additional 1-10-1 and 2-8-2 MOE gapmers (Table 68); format: in vivo; conditions: Balb/c mouse kidney
# rat SGLT2 mRNA [9] = experiment: Rat SGLT2 mRNA in kidney, 1-10-1 and 2-8-2 MOE gapmer (Table 70); format: in vivo; conditions: Sprague-Dawley rat kidney
# Protocol: The effect of ISIS 3796921-10-1 MOE gapmer and ISIS 388625 MOE 2-8-2 gapmer (see Table 70) on rat SGLT2 mRNA levels in vivo. […] Rats were sacrificed 48 hours following last administration and evaluated for SGLT2 levels in kidney. Target levels were determined by RT, real-time PCR as described by other examples herein. PCR results were normalized to an internal ISIS control.
# [10] = Plasma glucose in ZDF rat (Table 71); format: in vivo; conditions: ZDF rats, 400 nM/kg i.p. once a week for twelve weeks; compared to PBS and control
# Protocol: as §2
# [11] = 0.1 umol/kg i.p. twice per week for three weeks
# [12] = 0.5 umol/kg i.p. twice per week for three weeks
compound,measurement,setting,value
O=C(CCc1ccc(O)cc1)c1c(O)cc(O)cc1O[C@@H]1O[C@H](CO)[C@@H](O)[C@H](O)[C@H]1O [phlorizin],transport activity,human SGLT2,suppressed
"ISIS 370717: TAGCCACCAACT 1-10-1 MOE gapmer, phosphorothioate, SGLT-2 (sugars from the 5' end e1 d10 e1, all phosphorothioate, methylation of C not given here)",% change in SGLT2 expression relative to saline,rat SGLT2 mRNA [1],−70%
same,% change in SGLT2 expression relative to saline,rat SGLT2 mRNA [2]; 50 nmol/kg i.p. twice per week for three weeks,−55%
same,% change in SGLT2 expression relative to saline,rat SGLT2 mRNA [2]; 150 nmol/kg i.p. twice per week for three weeks,−70%
same,% change in SGLT2 expression relative to saline,rat SGLT2 mRNA [2]; 450 nmol/kg i.p. twice per week for three weeks,−70%
same,% change in SGLT2 expression relative to saline,mouse SGLT2 mRNA [3]; [11],−55%
same,% change in SGLT2 expression relative to saline,mouse SGLT2 mRNA [3]; [12],−70%
same,% change in SGLT2 expression relative to saline,mouse SGLT2 mRNA [4]; 50 nmol/kg i.p. twice per week for two weeks,−47.5%
same,% change in SGLT2 expression relative to saline,mouse SGLT2 mRNA [4]; 150 nmol/kg i.p. twice per week for two weeks,−55%
same,% change in SGLT2 expression relative to saline,mouse SGLT2 mRNA [4]; 450 nmol/kg i.p. twice per week for two weeks,−65%
"ISIS 388625: TGTTCCAGCCCA 2-8-2 MOE Gapmer, SGLT2 (eT*eG*dT*dT*d[5mC]*d[5mC]*dA*dG*d[5mC]*d[5mC]*e[5mC]*eA)",Peak plasma glucose levels decreased,[5],over 50%
same,HbA1C,[6],significantly reduced
same,reduction of SGLT2 mRNA,dog SGLT2 mRNA,greater than 80%
same,"SGLT2 mRNA, percent change relative to saline treated animals",mouse SGLT2 mRNA [7]; 5 nmol/kg i.p. twice per week for three weeks,−18%
same,"SGLT2 mRNA, percent change relative to saline treated animals",mouse SGLT2 mRNA [7]; 25 nmol/kg i.p. twice per week for three weeks,−47%
same,"SGLT2 mRNA, percent change relative to saline treated animals",mouse SGLT2 mRNA [7]; 125 nmol/kg i.p. twice per week for three weeks,−70%
same,% change in SGLT2 expression relative to saline,mouse SGLT2 mRNA [8]; 0.02 umol/kg i.p. twice per week for three weeks,−65%
same,% change in SGLT2 expression relative to saline,mouse SGLT2 mRNA [8]; [11],−88%
same,% change in SGLT2 expression relative to saline,mouse SGLT2 mRNA [8]; [12],−90%
same,% change in SGLT2 expression relative to saline,rat SGLT2 mRNA [9]; dose 3.125 umol/kg [sic] i.p. twice per week for three weeks,+25%
same,% change in SGLT2 expression relative to saline,rat SGLT2 mRNA [9]; dose 12.5 umol/kg [sic] i.p. twice per week for three weeks,−15%
same,% change in SGLT2 expression relative to saline,rat SGLT2 mRNA [9]; dose 50 umol/kg [sic] i.p. twice per week for three weeks,−65%
same,% change in SGLT2 expression relative to saline,rat SGLT2 mRNA [9]; dose 200 umol/kg [sic] i.p. twice per week for three weeks,−80%
same,Plasma glucose levels,[10],significantly reduced
